Measured values from the supplement of paper PMC10627819.

Tests used:
[1] = system: B. subtilis 168; test: fitness (endpoint OD595 vs no drug) (fraction); higher = more growth
Method in brief: (§1)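 Cultures at OD595 0.01 were dispensed into 384-well plates in TSB, LB Lennox or CY and incubated at 37 °C. Every 30 min for 14 h, OD595 was read and corrected by the first reading. Fitness is the optical density at entry into stationary phase relative to the robust mean of no-drug control wells, capped at 1.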

[2] = system: S. pneumoniae D39V; test: as above
Method in brief: as §1

[3] = system: B. subtilis 168; test: Bliss interaction score (quartile over a dose matrix) (fitness difference); higher = more antagonism (negative = synergy)
Method in brief: (§2)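 The Bliss score is observed minus expected fitness, where expected fitness is the product of the single-drug fitness values inferred from the combination data. Fitness is the OD595 at the onset of stationary phase over the plate's robust no-drug mean, capped at 1. Scores are summarised by quartiles over technical, biological and donor/recipient replicates.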

[4] = system: S. aureus DSM 20231; test: as above
Method in brief: as §2

[5] = system: S. pneumoniae D39V; test: as above
Method in brief: as §2

[6] = system: S. aureus Newman; test: as above
Method in brief: as §2
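For Bliss interaction score (quartile over a dose matrix) in this document: first quartile when negative (synergy) and third quartile when positive (antagonism).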

C[C@H]1c2cccc(O)c2C(=O)C2=C(O)[C@]3(O)C(=O)C(C(N)=O)=C(O)[C@@H](N(C)C)[C@@H]3[C@@H](O)[C@@H]21 [Doxycycline] + COc1ccc(C[C@H](N)C(=O)N[C@H]2[C@@H](O)[C@H](n3cnc4c(N(C)C)ncnc43)O[C@@H]2CO)cc1 [Puromycin]
Conditions | fitness
[1], first compound 0.02 µg/mL, partner 0.39 µg/mL | 0.861
[1], first compound 0.02 µg/mL, partner 0.78 µg/mL | 0.858
[1], first compound 0.02 µg/mL, partner 1.56 µg/mL | 0.877
[1], first compound 0.04 µg/mL, partner 0.39 µg/mL | 0.748
[1], first compound 0.04 µg/mL, partner 0.78 µg/mL | 0.751
[1], first compound 0.04 µg/mL, partner 1.56 µg/mL | 0.761
[1], first compound 0.08 µg/mL, partner 0.39 µg/mL | 0.405
[2], first compound 0.0155 µg/mL, partner 1 µg/mL | ≥ 1
[2], first compound 0.0155 µg/mL, partner 2 µg/mL | 0.97
[2], first compound 0.0155 µg/mL, partner 4 µg/mL | 0.834
[2], first compound 0.031 µg/mL, partner 1 µg/mL | 0.857
[2], first compound 0.031 µg/mL, partner 2 µg/mL | 0.836
[2], first compound 0.031 µg/mL, partner 4 µg/mL | 0.73
[2], first compound 0.062 µg/mL, partner 1 µg/mL | 0.847
[2], first compound 0.062 µg/mL, partner 2 µg/mL | 0.786
[2], first compound 0.062 µg/mL, partner 4 µg/mL | 0.637

fitness, [2], one replicate
Conditions | partner 1 µg/mL | partner 2 µg/mL | partner 4 µg/mL
first compound 0.003875 µg/mL | ≥ 1 | 0.98 | 0.847
first compound 0.00775 µg/mL | ≥ 1 | 0.976 | 0.86

Conditions | Bliss interaction score
[3] | -0.0496
[4] | -0.0866
[5] | 0.0767
[6] | -0.0507

C[C@H]1c2cccc(O)c2C(=O)C2=C(O)[C@]3(O)C(=O)C(C(N)=O)=C(O)[C@@H](N(C)C)[C@@H]3[C@@H](O)[C@@H]21 [Doxycycline] + CCC(C)C1C(=O)NC(=C)C(=O)NC(C(=O)NC(CSCC(C(=O)N1)NC(=O)/C(=C/C)/NC(=O)C(C(C)CC)N)C(=O)NC2C(SCC(NC(=O)CNC(=O)C3CCCN3C2=O)C(=O)NC(CCCCN)C(=O)NC4C(SCC(NC(=O)CNC(=O)C(NC(=O)C(NC(=O)C(NC(=O)CNC4=O)C)CC(C)C)CCSC)C(=O)NC(CC(=O)N)C(=O)NC(CCSC)C(=O)NC(CCCCN)C(=O)NC5C(SCC6C(=O)NC(C(=O)NC(CSC(C(C(=O)N6)NC(=O)C(NC5=O)C)C)C(=O)NC(CO)C(=O)NC(C(C)CC)C(=O)NC(CC7=CN=CN7)C(=O)NC(C(C)C)C(=O)NC(=C)C(=O)NC(CCCCN)C(=O)O)CC8=CN=CN8)C)C)C)CC(C)C [Nisin]
main component drawn
Conditions | fitness
[1], first compound 0.02 µg/mL, partner 0.5 µg/mL | 0.836
[1], first compound 0.02 µg/mL, partner 1 µg/mL | 0.809
[1], first compound 0.02 µg/mL, partner 2 µg/mL | 0.476
[1], first compound 0.04 µg/mL, partner 0.5 µg/mL | 0.755
[1], first compound 0.04 µg/mL, partner 1 µg/mL | 0.741
[1], first compound 0.04 µg/mL, partner 2 µg/mL | 0.403
[1], first compound 0.08 µg/mL, partner 0.5 µg/mL | 0.61
[1], first compound 0.08 µg/mL, partner 1 µg/mL | 0.541
[1], first compound 0.08 µg/mL, partner 2 µg/mL | 0.0887
[2], first compound 0.0155 µg/mL, partner 0.4275 µg/mL | 0.935
[2], first compound 0.0155 µg/mL, partner 0.855 µg/mL | 0.803
[2], first compound 0.0155 µg/mL, partner 1.6 µg/mL | 0.192
[2], first compound 0.0155 µg/mL, partner 1.71 µg/mL | 0.0645
[2], first compound 0.0155 µg/mL, partner 3.2 µg/mL | 0.017
[2], first compound 0.0155 µg/mL, partner 6.4 µg/mL | 0.0088
[2], first compound 0.031 µg/mL, partner 0.4275 µg/mL | 0.89
[2], first compound 0.031 µg/mL, partner 0.855 µg/mL | 0.596
[2], first compound 0.031 µg/mL, partner 1.71 µg/mL | 0.0413
[2], first compound 0.062 µg/mL, partner 0.4275 µg/mL | 0.846
[2], first compound 0.062 µg/mL, partner 1.71 µg/mL | 0.0711

fitness, one replicate, main component drawn
Conditions | partner 1.25 µg/mL | partner 1.6 µg/mL | partner 2.5 µg/mL | partner 3.2 µg/mL | partner 4 µg/mL | partner 5 µg/mL | partner 6.4 µg/mL | partner 8 µg/mL | partner 16 µg/mL
[1], first compound 0.02 µg/mL | 0.915 | 0.287 | 0.481 | 0.0387 | 0.0411 | 0.0601 | 0.0419 | 0.0354 | 0.0177
[1], first compound 0.04 µg/mL | 0.935 | 0.358 | 0.464 | 0.0224 | 0.137 | 0.0251 | 0.035 | 0.0271 | 0.024
[1], first compound 0.08 µg/mL | 0.594 | 0.0173 | 0.165 | 0.0251 | 0.0169 | 0.0318 | 0.0245 | 0.0228 | 0.0199
[2], first compound 0.003875 µg/mL | – | 0.0092 | – | 0 | – | – | 0.0176 | – | –
[2], first compound 0.00775 µg/mL | – | 0.0172 | – | 0 | – | – | 0.0097 | – | –
[2], first compound 0.031 µg/mL | – | 0.222 | – | 0.0345 | – | – | 0 | – | –
[2], first compound 0.062 µg/mL | – | 0.0897 | – | 0.0057 | – | – | 0.0088 | – | –

main component drawn
Conditions | Bliss interaction score
[3] | 0.0503
[4] | -0.0392
[5] | -0.161
[6] | 0.0561
